Here are results for three molecules from patent publication US10537608B2, “Adiponectin peptidomimetics for treating ocular disorders” (Allysta Pharmaceuticals, Inc., priority 2015, dated 2020).

Holding throughout (type): in vivo, C57BL/6 mice
Test [1] has as its system Experimental dry eye (EDE) mice. Put plainly: Corneal fluorescein staining in experimental dry eye mice (Example 4). To be noted: single treatment, topical; D5 and D10. As to the method:
Experimental dry eye (EDE) was induced in 8-week old female C57BL/6 mice by subcutaneous injection of 0.5 mg/0.2 mL scopolamine hydrobromide (Sigma-Aldrich, St. Louis, Mo.) three times a day (9 AM 0.3 mL, 1:30 PM 0.3 mL, and 6:00 PM 0.3 mL). The mice were also exposed to an air draft and 30% ambient humidity. Five experimental groups used in this study included: (1) untreated control mice (UT; no dry eye treatment and no topical treatment); (2) EDE control mice received a balanced salt solution (BSS); (3) EDE mice received ADP 355 0.1% (single chain adiponectin peptidomimetic (ADP 355) in BSS); (4) EDE mice received Lifitegrast 5%; and (5) EDE mice received 0.1% peptide adiponectin peptidomimetic (ADP 355) in BSS+Lifitegrast 5%. […] Mice were evaluated at baseline, day 5 and day 10 after the treatment initiation.
Experiment 2—Corneal staining: The purpose of the corneal staining assay was to evaluate damage to the cornea epithelia in the murine EDE subject either as a consequence of inducing dry eye or due to treatment with 0.1% ADP 355 or with Lifitegrast 5% alone or with the combination of 0.1% ADP 355+Lifitegrast 5%. […] Corneal staining was assessed in four quadrants using a 4-point scale with 16 being the maximum score.
Briefly, fluorescein dye (1 μï) was instilled into the eye and then the eye was washed with saline. […] The average score from the five regions was recorded. […]

The test system is the same in test [2]. Put plainly: Tear volume by phenol red thread tear test in experimental dry eye mice (Example 3). To be noted: 0.01% in BSS; for tear production, as measured by tear volume, compared to untreated or BSS treated EDE mice: topical 2 μl/eye 3 times a day, day 5 and day 10, p-value<0.05 vs. EDE; for difference in tear volume among those treated with ADP355, ADP399 and globular adiponectin: topical, EDE mice. As to the method: (§1) Experimental dry eye (EDE) was induced in 8-week old female C57BL/6 mice by subcutaneous injection of 0.5 mg/0.2 mL scopolamine hydrobromide (Sigma-Aldrich, St. Louis, Mo.) three times a day (9 AM, 1:30 PM and 6 PM). A dose of 0.3 mL scopolamine hydrobromide was administered at each injection. The mice were also exposed to an air draft and 30% ambient humidity. 6 experimental groups used in this study included: (1) untreated control mice (UT; no dry eye treatment and no topical treatment); (2) untreated EDE control mice (EDE; received no topical administration); (3) EDE control mice received a balanced salt solution (BSS); (4) EDE mice received 0.01% single chain adiponectin peptidomimetic (ADP355) in BSS; (5) EDE mice receiving 0.01% peptide dimer adiponectin peptidomimetic (ADP399) in BSS; and (6) EDE mice receiving 0.01% recombinant globular adiponectin (gAdipo) in BSS. Each group included 5 mice. EDE mice treated with BSS received topical bilateral administration of 2 μï/eye, 3 times a day. EDE mice treated with ADP355 received topical bilateral administration of 2 μï/eye, 3 times a day. EDE mice treated with ADP-399 received topical bilateral administration of 2 μï/eye, 3 times a day. The gAdipo treated mice served as a positive treatment control. Mice were evaluated at baseline, day 5 and day 10 after the treatment initiation. In some experiments, ADP355, ADP-399 and gAdipo were resuspended in 0.01% BSA.
Tear volume was measured using a phenol red thread tear test. Briefly, a cotton thread treated with phenol red at its tip (Zone-Quick; Oasis, Glendora, Calif.) was held with jeweler's forceps and placed in the tear meniscus of the lateral canthus for 20 sees to contact tear fluid. Using a microscope, the length of the red portion (wet portion) of the thread was measured in millimeters. A standard curve was derived to convert the distance measurement into tear volume.

Test [3] shares this test system. Put plainly: Corneal fluorescein staining in experimental dry eye mice (Example 3). To be noted: 0.01% in BSS; for corneal staining (corneal irregularity) compared to untreated EDE mice: topical 3 times a day, score 0-4, day 5 and day 10, p-value<0.05 vs. EDE; for corneal surfaces compared to untreated normal mice (UT) and positive control gAdipo-treated mice: topical, EDE mice. As to the method: as §1
The severity of corneal epithelial damage was evaluated by corneal fluorescein staining. Briefly, 1% fluorescein dye (1 μï) was instilled into the eye and then the eye was washed with saline. 10 minutes after application of the dye, the eye was photographed with a slip lamp microscope using a cobalt blue light. The stained area was graded using a scoring system by two blinded observers. […] The average score from the five regions was recorded. […] In addition, the adiponectin peptidomimetic-treated mice (ADP355 and ADP-399) had corneal surfaces that were similar to those of untreated normal mice (UT) and positive control globular adiponectin-treated mice (gAdipo). The corneal surface scores in all groups at day 10 were similar to those at day 5 after treatment initiation.

Primed or numbered codes have the meaning given here. Where no end group is shown, it is not given here. [ ]: non-standard residue; d: D form. Dab′ = 2,3-diamino butyric acid; Nva = CCC[C@H](N)C(=O)O

Regarding `CS(=O)(=O)c1cccc(C[C@H](NC(=O)c2c(Cl)cc3c(c2Cl)CCN(C(=O)c2ccc4ccoc4c2)C3)C(=O)O)c1` [Lifitegrast, reference compound], in test [1], the “corneal disruptions resulting from induced dry eye (corneal staining grade) vs untreated eyes (BSS)” value was “improved corneal disruptions”.

“(DAsn-Ile-Pro-Nva-Leu-Tyr-DSer-Phe-Ala-DSer-His-Pro)2-Dab-NH2 ([dN]IP[Nva]LY[dS]FA[dS]HP[Dab′]-NH2; also: branched dimer: two chains joined via C-terminal Dab) [ADP399, linear branched dimer of ADP355]”: in test [2], the “tear production, as measured by tear volume, compared to untreated or BSS treated EDE mice” value is on record as “higher”; the “difference in tear volume among those treated with ADP355, ADP399 and globular adiponectin” value is listed as “no significant difference”. In test [3], the “corneal staining (corneal irregularity) compared to untreated EDE mice” value was “less corneal staining”; the “corneal surfaces compared to untreated normal mice (UT) and positive control gAdipo-treated mice” value was “similar”.

Consider “DAsn-Ile-Pro-Nva-Leu-Tyr-DSer-Phe-Ala-DSer-NH2 ([dN]IP[Nva]LY[dS]FA[dS]-NH2; N-terminus assumed; SMILES CCC[C@H](NC(=O)[C@@H]1CCCN1C(=O)[C@@H](NC(=O)[C@H](N)CC(N)=O)[C@@H](C)CC)C(=O)N[C@@H](CC(C)C)C(=O)N[C@@H](Cc1ccc(O)cc1)C(=O)N[C@H](CO)C(=O)N[C@@H](Cc1ccccc1)C(=O)N[C@@H](C)C(=O)N[C@H](CO)C(N)=O) [ADP355, single chain adiponectin peptidomimetic]”, for which, in test [2], the “tear production, as measured by tear volume, compared to untreated or BSS treated EDE mice” value was “higher”; the “difference in tear volume among those treated with ADP355, ADP399 and globular adiponectin” value is reported as “no significant difference”. Further, in test [3], the “corneal staining (corneal irregularity) compared to untreated EDE mice” value is listed as “less corneal staining”; the “corneal surfaces compared to untreated normal mice (UT) and positive control gAdipo-treated mice” value is “similar”. The “corneal disruptions resulting from induced dry eye (corneal staining grade) vs untreated eyes (BSS)” value in test [1] was “improved corneal disruptions”.
